US20100256153A1, “METHODS FOR PREVENTING OR REDUCING RISK OF MORTALITY” (priority 2009, published 2010)

Key:
[1] = tested on: subjects of pooled studies; assay: Ischemic serious adverse events (heart or brain related) in pooled studies, Fischer Exact Test analysis (FIG. 12); type: in vivo, human; details: FIG. 12, per 100 comparator
[2] = tested on: subjects administered sitagliptin or metformin; assay: Health insurance data analysis of heart attack, sitagliptin relative to metformin (FIG. 13); type: in vivo, human; details: propensity adjusted, 27,424 sitagliptin vs 80,462 metformin subjects
[3] = tested on: Phase 2b/3 pooled population; assay: Pooled analysis of cardiovascular events and death in the Phase 2b/3 clinical studies; type: in vivo, human; details: for CEC-CV death/MI/stroke: CEC-adjudicated; for All MI / All stroke: fatal and/or non-fatal
Experimental: The mortality and adverse CV event data shown in the Tables and Figures herein were analyzed from the Phase 2b and Phase 3 studies (Phase 2b/3).
Mortality incidences caused by stroke, heart attack, heart failure, or blood vessel problems not associated with the heart or brain, were defined as CV death. Death by any means, including CV death, was defined as All-cause Mortality or All-cause death.
Acute CV events, as defined herein, includes all cardiovascular disorders associated with Phase 2b/3 subjects that were diagnosed by a medical physician during the studies as acute and clinically significant including MACE events and also procedures (for example, cardiac bypass surgery) and severe ischemic event such as unstable angina. Primary MACE means non-fatal myocardial infarction (MI), non-fatal stroke, and CV death. Secondary MACE accounts for All-cause deaths (death by any means) in addition to non-fatal MI, non-fatal stroke, and CV death.
First, two physicians at the Clinical Event Center (CEC) of the Duke Clinical Research Institute (Durham, N.C.) served as consultants to the sponsor and performed a retrospective treatment-blinded independent adjudication of all identified potential CV events. […] Adjudication was based on definitions typical for such review and prespecified by the reviewers.

[4] = tested on: non-diabetic mice; assay: Two year survival of non-diabetic mice (FIGS. 9-10); type: in vivo, mouse; details: 50 mg/kg/day, two years
Description: (§1) In these studies, approximately sixty animals of each gender were exposed to saxagliptin or two cohorts of placebo over two years, the approximate lifetime of a rodent. […] The differences in survival time between male and female rodents are not currently explained. A possible explanation for the rat results is that the dose taken by male rats, 45 times the human equivalent dose, was closer to the human experience than the same dose taken by female rats, 112 times the human equivalent dose, and therefore the male experience may be more relevant.

[5] = tested on: subjects; assay: Phase 1-3 clinical development, tolerability; type: in vivo, human
[6] = tested on: non-diabetic rats; assay: Two year survival of non-diabetic rats (FIGS. 7-8); type: in vivo, rat; details: 25 mg/kg/day, two years
Description: as §1

[7] = All Saxa (2.5, 5, 10, 20, 40, 100 mg/d), N = 3356
[8] = CEC adjudication, all saxagliptin

N#C[C@@H]1CCCN1C(=O)CNC12CC3CC(CC(O)(C3)C1)C2 [vildagliptin, reference compound]
ischemic SAEs (heart attack or stroke-like events causing death, hospitalization, or near hospitalization), subjects on drug when 100 subjects on comparator had events [1]: 70 subjects

N[C@@H](CC(=O)N1CCn2c(nnc2C(F)(F)F)C1)Cc1cc(F)c(F)cc1F [sitagliptin]
heart attack, subjects on sitagliptin in the time 100 subjects have a heart attack on metformin [2]: 65 subjects

N#C[C@@H]1C[C@@H]2C[C@@H]2N1C(=O)[C@@H](N)C12CC3CC(CC(O)(C3)C1)C2 [saxagliptin, (1S,3S,5S)-2-[(2S)-2-amino-2-(3-hydroxyadamantan-1-yl)acetyl]-2-azabicyclo[3.1.0]hexane-3-carbonitrile]
subjects having a Primary MACE (CV death/MI/stroke) ([3]; ALL SAXA group): 0.7%
Inv-CV death/MI/stroke [3, 7]: 23 (0.7) n (%)
CEC-CV death/MI/stroke [3, 7]: 22 (0.7) n (%)
All death ([3]; All Saxa, N = 3356): 10 (0.3) n (%)
Other CV death ([3]; All Saxa, N = 3356): 4 (0.1) n (%)
All MI ([3]; All Saxa, N = 3356): 8 (0.2) n (%)
All stroke ([3]; All Saxa, N = 3356): 11 (0.3) n (%)
All Stroke (fatal and non-fatal), proportion of subjects with events [3, 8]: 0.3%
Other CV death, proportion of subjects with events [3, 8]: 0.1%
all MI, proportion of subjects with events [3, 8]: 0.2%
Acute CV Events, Incidence rate ± SE ([3]; Phase 2/3 Pooled Population): 10.7 ± 1.8 events/1000 patient-years
Primary MACE, Incidence rate ± SE ([3]; Phase 2/3 Pooled Population): 6.2 ± 1.3 events/1000 patient-years
Secondary MACE, Incidence rate ± SE ([3]; Phase 2/3 Pooled Population): 7.0 ± 1.4 events/1000 patient-years
All death ([3]; Saxa 2.5 mg, N = 937): 3 (0.3) n (%)
Inv-CV death/MI/stroke ([3]; Saxa 2.5 mg, N = 937): 6 (0.6) n (%)
Other CV death ([3]; Saxa 2.5 mg, N = 937): 0 n (%)
CEC-CV death/MI/stroke ([3]; Saxa 2.5 mg, N = 937): 6 (0.6) n (%)
All MI ([3]; Saxa 2.5 mg, N = 937): 2 (0.2) n (%)
All stroke ([3]; Saxa 2.5 mg, N = 937): 4 (0.4) n (%)
All death ([3]; Saxa 5 mg, N = 1269): 3 (0.2) n (%)
Inv-CV death/MI/stroke ([3]; Saxa 5 mg, N = 1269): 6 (0.5) n (%)
Other CV death ([3]; Saxa 5 mg, N = 1269): 0 n (%)
CEC-CV death/MI/stroke ([3]; Saxa 5 mg, N = 1269): 7 (0.6) n (%)
All MI ([3]; Saxa 5 mg, N = 1269): 4 (0.3) n (%)
All stroke ([3]; Saxa 5 mg, N = 1269): 4 (0.3) n (%)
All death ([3]; Saxa 10 mg, N = 1000): 4 (0.4) n (%)
Inv-CV death/MI/stroke ([3]; Saxa 10 mg, N = 1000): 11 (1.1) n (%)
Other CV death ([3]; Saxa 10 mg, N = 1000): 4 (0.4) n (%)
CEC-CV death/MI/stroke ([3]; Saxa 10 mg, N = 1000): 9 (0.9) n (%)
All MI ([3]; Saxa 10 mg, N = 1000): 2 (0.2) n (%)
All stroke ([3]; Saxa 10 mg, N = 1000): 3 (0.3) n (%)
Proportion of subjects with SAE CHF events ([3]; all saxagliptin): 0.2%
overall frequency of CV deaths ([3]; all subjects treated with saxagliptin (7/3356)): 0.2%
all cause mortality (death by any means), frequency ([3]; all subjects treated with saxagliptin (10/3356)): 0.3%
incidence of MACE events in higher risk subgroups versus control ([3]; at least one or two CV risk factors in addition to T2DM, history of hypertension or hypercholesterolemia, males, FIGS. 3, 4): lowered incidence MACE events
MACE events incidence rate ([3]; subjects with a history of CV disease, FIG. 3): 9.2 MACE events per 1000 patient-years
fatal CHF events ([3]; two fatal events in total, both on comparator): none
survival versus placebo ([4]; female mice, FIG. 9): reduced risk of mortality
survival versus placebo ([4]; male mice, FIG. 10): intermediate between the two placebo cohorts
ischemic SAEs (heart attack or stroke-like events causing death, hospitalization, or near hospitalization), subjects on drug when 100 subjects on comparator had events [1]: 57 subjects
adverse CV effects related to blood pressure or heart rate ([5]; Phase 1-3 studies overall): did not lead to adverse CV effects
tolerability ([5]; maximum oral daily doses 400 mg up to 2 weeks, 100 mg up to 6 weeks, 40 and 20 mg up to 12 weeks, 2.5, 5, 10 mg up to 2 years): well tolerated
survival versus placebo ([6]; female rats, FIG. 8): intermediate between the two placebo cohorts
survival versus placebo ([6]; male rats, FIG. 7): reduced risk of mortality or longer survival times
